Values of other authors as cited in patent publication US10945947B2, “Formulations for intravenous administration” (GLAXOSMITHKLINE INTELLECTUAL PROPERTY (NO.2) LIMITED, priority 2015, dated 2021).
Counter-ions that a name gives are not always drawn.

Conditions: at a higher pH, after oral administration

**Q.** With `Cc1c(F)cccc1NC(=O)Nc1ccc(Cl)c(S(=O)(=O)[C@H]2CCCNC2)c1O` [hydrobromide salt of danirixin] as the compound, how does the “solubility and dissolution profiles compared to the free base” value read?
**A.** improved solubility and dissolution profiles
